Assays:
STK4 (MST1) = STK4 (MST1) (Homo sapiens (Human), UniProt Q13043); test: Z-lyte biochemical IC50 assay (Invitrogen); conditions: ATP concentration matched the Km
Experimental: (§1) STK4 (MST1), STK3 (MST2); STK24 (MST3) and MST4 Assays
(§2) Biochemical IC50s were measured at Invitrogen using Z-lyte technology. Briefly, for STK4, the 2×STK4 (MST1)/Ser/Thr 07 mixture was prepared in 50 mM HEPES pH 7.5, 0.01% BRIJ35, 10 mM MgCl2, 1 mM EGTA. The final 10 μL Kinase Reaction consisted of 6.25-160 ng STK4 (MST1) and 2 μM Ser/Thr 07 in 50 mM HEPES pH 7.5, 0.01% BRIJ-35, 10 mM MgCl2, 1 mM EGTA. After the 1 hour Kinase Reaction incubation, 5 μL of a 1:100000 dilution of Development Reagent A was added. Compounds were screened in a 10 point titration with 3-fold serial dilutions starting at a concentration of 10 μM. The biochemical IC50s against other STK family members were measured similarly. The ATP concentration used matched the Km for each kinase.

STK4 = STK4 (Homo sapiens (Human), UniProt Q13043); test: KiNativ Platform experiment, MM.1S cell lysates, biotinylated ATP, Western blot; type: binding; conditions: 10 μM, 20 minutes, then biotinylated ATP 10 minutes
Experimental: FIG. 32A and FIG. 32B show the results of a KiNativ™ Platform experiment obtained after incubating MM.1S cell lysates with 10 μM of the indicated compounds for 20 minutes, followed by incubation with biotinylated ATP for 10 minutes. FIG. 32A is a graph showing the ratio of MEK2 to STK4 derived from the Western blotting band signals in FIG. 32B, in MM.1S cell lysates treated with 10 μM of Compound I-9, I-13, or I-27 or KIN001-305 followed by incubation with biotinylated ATP. FIG. 32B is a Western blot showing the levels of STK4 and MEK2 in MM.1S cells treated with 10 μM of Compound I-9, I-13, or I-27 or KIN001-305 followed by incubation with biotinylated ATP.

p-MOB1 = test: Western blotting; type: cell-based; conditions: MM.1S cells, 1 μM and 10 μM, 6 hours
From the text: (§3) MM.1S, KMS20 and H929 cells are counted, diluted and plated. Cells are then […] with DMSO or different concentration of a compound of the present application for 6 hrs, 24 hrs or 48 hrs. MM cells are then collected and centrifuged at RT and the pellets are re-suspended in lysis buffer. Cell lysates are subjected to sodium dodecyl sulfate-polyacrylamide gel electrophoresis SDS-PAGE, transferred to nitrocellulose membranes, and immunoblotted with different antibodies.
(§4) MM.1S, KMS20 and H929 cells were counted, diluted and plated in six-well plates to a final concentration of 500,000 cells/well. Cells were then […] with DMSO or different concentration of a compound of the present application for 6 hrs, 24 hrs or 48 hrs. MM cells were then collected and centrifuged for 5 min, 1300 rpm at RT. The pellets were re-suspended in lysis buffer Laemli 1× (Laemli 5×: SDS 10%, DTT 500 mM, Tris-HCl pH6.8 0.4M, BromoFenol Blue, Glycerol 50%). Cell lysates were subjected to sodium dodecyl sulfate-polyacrylamide gel electrophoresis SDS-PAGE, transferred to nitrocellulose membranes, and immunoblotted with different antibodies: YAP1 (#4912), p-YAP1 (S127) (#13008), LATS1 (#9153), p-LATS1 (Thr1079) (#8654), MOB1 (#3863), p-MOB1 (Thr12) (#8843), p-MST1/p-MST2 (Thr183/Thr180) (#3681), p21 (#2947), PARP (#9532), ERK, STAT, and GAPDH (#5174) from Cell Signaling, Beverly, Mass., United States; STK4 (ab57836) (from Abcam, Cambridge, Mass., United States); PUMA (sc-28226), BAX (sc-20067), from Santa Cruz, Dallas, Tex., United States; β-actin from Sigma-Aldrich (St. Louis, Mo., United States). All antibodies were diluted 1:500, except for β-actin antibody (1:50,000 dilution). In FIG. 8, H929 cells were treated with Compound I-9 or DMSO at 1 μM concentration for 24 hours. Lysates were then obtained and immunoblot was performed using antibodies against PARP, YAP1, PUMA, BAX. p21, and GAPDH.
In FIGS. 26A-26J, MM.1S cells were treated with Compound I-6, Compound I-31, Compound I-30, Compound I-22, Compound I-27, Compound I-1, Compound I-23, Compound I-13, Compound I-28, Compound I-9, or DMSO at 1 μM and 10 μM concentrations for 6 hours. Lysates were then obtained and immunoblot was performed using antibodies against MOB1 and p-MOB1. As shown from FIGS. 26A-26J, Compound I-22, Compound I-27, Compound I-1, Compound I-23, Compound I-13, Compound I-28, and Compound I-9 reduced PMOB1 levels at different concentrations.

STK24 (MST3) = STK24 (MST3) (Homo sapiens (Human), UniProt Q9Y6E0); test: Z-lyte biochemical IC50 assay (Invitrogen); conditions: ATP concentration matched the Km
Experimental: as §1, §2

STK3 (MST2) = STK3 (MST2) (Homo sapiens (Human), UniProt Q13188); test: Z-lyte biochemical IC50 assay (Invitrogen); conditions: ATP concentration matched the Km
Experimental: as §1, §2

YAP1 = test: Western blotting; type: cell-based; conditions: H929 and MM.1S cells, 3 μM and 10 μM, 72 hours
From the text: as §3, §4
In FIG. 10A, H929 and MM.1S cells were treated with Compound I-1 or DMSO at 1 μM and 10 μM concentrations for 16 hours. Lysates were then obtained and immunoblot was performed using antibodies against YAP1 and GAPDH.
In FIG. 12, H929 and MM. 1S cells were treated with Compound I-9, Compound I-12, or DMSO at 3 μM and 10 μM concentrations for 72 hours. Lysates were then obtained and immunoblot was performed using antibodies against YAP1 and Actin as loading control.
FIG. 13 show a Western blot of H929 and MM.1S cells treated with Compound I-13, Compound I-28, Compound I-9, KIN001-305, BMS536924, or DMSO at 1 μM concentration for 16 hours. Lysates were then obtained and immunoblot was performed using antibodies against YAP1, Actin, and pMOB1.

Chain of STK3 (MST2) (Q13188 whole entry): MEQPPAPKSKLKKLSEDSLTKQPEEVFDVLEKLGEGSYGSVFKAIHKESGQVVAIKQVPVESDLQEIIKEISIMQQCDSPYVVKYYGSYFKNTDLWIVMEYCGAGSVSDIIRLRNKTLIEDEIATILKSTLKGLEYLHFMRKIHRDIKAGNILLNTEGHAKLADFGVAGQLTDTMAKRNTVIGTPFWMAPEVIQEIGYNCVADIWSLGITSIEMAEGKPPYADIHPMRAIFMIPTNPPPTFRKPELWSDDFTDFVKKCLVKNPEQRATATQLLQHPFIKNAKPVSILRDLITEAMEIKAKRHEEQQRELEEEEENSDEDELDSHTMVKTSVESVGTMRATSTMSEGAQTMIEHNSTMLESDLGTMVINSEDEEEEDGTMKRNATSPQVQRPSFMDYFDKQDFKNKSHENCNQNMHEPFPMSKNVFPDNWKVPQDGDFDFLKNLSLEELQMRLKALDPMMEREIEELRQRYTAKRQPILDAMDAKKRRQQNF
Chain of STK4 (MST1) (Q13043 whole entry): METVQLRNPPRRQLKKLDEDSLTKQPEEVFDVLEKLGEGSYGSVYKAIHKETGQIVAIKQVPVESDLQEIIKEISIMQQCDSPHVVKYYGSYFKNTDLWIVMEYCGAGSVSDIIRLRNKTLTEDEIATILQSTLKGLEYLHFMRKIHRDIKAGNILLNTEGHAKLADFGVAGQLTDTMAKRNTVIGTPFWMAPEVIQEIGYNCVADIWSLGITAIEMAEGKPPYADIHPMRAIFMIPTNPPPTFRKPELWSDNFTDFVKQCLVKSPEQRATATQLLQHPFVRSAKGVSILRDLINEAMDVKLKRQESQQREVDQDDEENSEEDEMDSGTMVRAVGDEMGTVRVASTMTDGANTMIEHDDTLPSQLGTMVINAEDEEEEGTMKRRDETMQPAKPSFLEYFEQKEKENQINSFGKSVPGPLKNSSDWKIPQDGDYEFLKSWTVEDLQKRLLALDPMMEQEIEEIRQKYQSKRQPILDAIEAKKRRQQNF
Chain of STK4 (Q13043 whole entry): as above
Chain of STK24 (MST3) (Q9Y6E0 whole entry): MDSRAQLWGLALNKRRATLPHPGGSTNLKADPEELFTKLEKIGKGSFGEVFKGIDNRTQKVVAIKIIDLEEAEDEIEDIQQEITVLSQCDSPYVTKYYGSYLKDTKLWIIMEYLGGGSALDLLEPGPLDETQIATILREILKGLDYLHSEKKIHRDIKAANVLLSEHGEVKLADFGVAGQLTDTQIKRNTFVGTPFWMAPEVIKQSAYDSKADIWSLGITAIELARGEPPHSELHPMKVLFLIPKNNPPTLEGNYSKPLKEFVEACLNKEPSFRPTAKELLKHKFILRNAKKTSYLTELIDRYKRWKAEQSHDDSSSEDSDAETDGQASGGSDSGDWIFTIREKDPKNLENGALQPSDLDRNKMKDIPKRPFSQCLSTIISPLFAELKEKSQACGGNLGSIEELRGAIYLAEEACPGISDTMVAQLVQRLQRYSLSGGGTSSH

Row | Compound | IC50 (STK4 (MST1)) [nM] | affinity for STK4, as of ATP binding (STK4) | PMOB1 levels (p-MOB1) | IC50 (STK24 (MST3)) [nM] | IC50 (STK3 (MST2)) [nM] | YAP1 levels (YAP1)
1 | CN(C1CC1)S(=O)(=O)c1ccc(-c2cnc(N)c(-c3ccc4c(c3)CCNC4=O)c2)cc1 [KIN001-305, reference compound] | < 40 | highest affinity | – | – | – | –
2 | Nc1ncc(-c2cc([N+](=O)[O-])c(NCc3ccccc3)cc2F)cc1-c1ccc2c(c1)CCNC2=O [Compound I-27, 6-(2-amino-5-(4-(benzylamino)-2-fluoro-5-nitrophenyl)pyridin-3-yl)-3,4-dihydroisoquinolin-1(2H)-one] | 40 to 200 | highest affinity | reduced | – | – | –
3 | Nc1ncc(-c2cccc(S(=O)(=O)NC3CC3)c2)cc1-c1ccc2c(c1)CCNC2=O [Compound I-12, 3-(6-amino-5-(1-oxo-1,2,3,4-tetrahydroisoquinolin-6-yl)pyridin-3-yl)-N-cyclopropylbenzenesulfonamide] | 40 to 200 | – | – | 200 to 900 | 40 to 200 | upregulation
4 | Nc1ncc(-c2cc3c(cc2F)OCC(=O)N3)cc1-c1ccc2c(c1)CCNC2=O [Compound I-23, 6-(6-amino-5-(1-oxo-1,2,3,4-tetrahydroisoquinolin-6-yl)pyridin-3-yl)-7-fluoro-2H-benzo[b][1,4]oxazin-3(4H)-one] | < 40 | – | reduced | – | 40 to 200 | –
5 | Nc1ncc(-c2cc([N+](=O)[O-])c(Cl)cc2F)cc1-c1ccc2c(c1)CCNC2=O [Compound I-22, 6-(2-amino-5-(4-chloro-2-fluoro-5-nitrophenyl)pyridin-3-yl)-3,4-dihydroisoquinolin-1(2H)-one] | 40 to 200 | – | reduced | – | 40 to 200 | –

Reference: patent US10710978B2, “STK4 inhibitors for treatment of hematologic malignancies” (Dana-Farber Cancer Institute, Inc., priority 2015, dated 2020)
